Values quoted from earlier work, collected in US20060193824A1, “Methods for the treatment of infectious and inflammatory airway diseases” (priority 2005, published 2006).

Assays:
[1] = system: respiratory epithelial cells
human airways [2] = system: human airways
human airways [3] = system: human airways; remark: listed apart in the source
[4] = system: normal pancreatic cell lines; conditions: extracellular ATP

Tumor necrosis factor alpha
MUC5AC release [1]: stimulate MUC5AC release

C[N+](C)(C)CCOC(N)=O [carbachol]
mucin secretion (mucin secretion): effective to stimulate mucin secretion

Interleukin 1
mucus secretagogue activity (mucus secretion): mucus secretagogue

CC(C)C[C@H](NP(=O)(O)O[C@@H]1O[C@@H](C)[C@H](O)[C@@H](O)[C@H]1O)C(=O)N[C@@H](Cc1c[nH]c2ccccc12)C(=O)O [phosphoramidon]
mucin release (mucin release): stimulate mucin release

CC(=O)N[C@H]1C(O)O[C@H](CO)[C@@H](O)[C@@H]1O (some centres unmarked) [N-acetyl-glucosamine]
mucin release (GI tract): stimulate mucin release in the GI tract

CCCCC/C=C\C/C=C\C/C=C\C/C=C\CCCC(=O)O [Arachidonic acid]
mucin release (human airways [2]): release mucin from human airways

NCCc1c[nH]cn1 [Histamine]
mucous glycoprotein release (human airways [3]): stimulates mucous glycoprotein release

CC(C[N+](C)(C)C)OC(N)=O (centres unmarked) [bethanechol]
mucin secretion (mucin secretion): effective to stimulate mucin secretion

CC(C)C[C@H](NC(=O)C(CS)Cc1ccccc1)C(=O)O (some centres unmarked) [leucine-thiorphan]
mucin release (mucin release): stimulate mucin release

CC(=O)OC(C)C[N+](C)(C)C (centres unmarked) [methacholine]
mucin secretion (mucin secretion): effective to stimulate mucin secretion

FC(F)(F)C(F)(F)C(F)(F)C(F)(F)C(F)(F)C(F)(F)C(F)(F)C(F)(F)Br [perflubron, perfluorooctyl bromide]
mucin secretion (ferret trachea): stimulates mucin secretion

Nc1ncnc2c1ncn2[C@@H]1O[C@H](COP(=O)(O)OP(=O)(O)OP(=O)(O)O)[C@@H](O)[C@H]1O [ATP]
mucin protein secretion [4]: rapidly increased mucin protein secretion

O=C(O)CNC(=O)C(CS)Cc1ccccc1 (centres unmarked) [Thiorphan]
mucin release (mucin release): stimulate mucin release

Epidermal growth factor: Epidermal growth factor, EGF, which can be obtained from Sigma (NSDSECPLSHDGYCLHDGVCMYIEALDKYACNCVVGYIGERCQYRDLKWWELR; Epidermal growth factor; UniProt P01133 971-1023, looked up)
mucin production (mucin production): effective to stimulate mucin production
